Test results as given in patent US8383582B2, “Inhibitor against forming biofilm comprising κ-casein macropeptide” (Industry Foundation of Chonnam National University, priority 2010, dated 2013).
Several values for one entry are separate records, joined by “and”; a condition that tells them apart may be missing. Equal entries are not always repeated.

Legend:
[1] = system: L. monocytogenes Scott A to HT-29 cell; assay: Invasion analysis (gentamicin-based) on HT-29 cells; type: cell-based, Listeria monocytogenes; settings: CMP 0.4 mg/ml, at the lower MOI, 1.5 h 37° C.
Description: (§1) The human intestinal epithelial cell line HT-29 and the human gastric epithelial cell line AGS were purchased from the Korea Cell Line Bank (KCLB; Seoul, Korea). HT-29 cells have been extensively used as a model system for studying interaction of enteric pathogens with intestinal epithelial cells. All media and fetal bovine serum (FBS) were obtained from Gibco BRL (Life Technologies Inc., Grand Island, N.Y., USA) and JBI (Jeil Biotech services Inc., Seoul, Korea). The HT-29 and AGS cells were grown in RPMI-1640 medium which was supplemented with 10% heat-inactivated FBS. The cells were routinely cultured at 37° C. in 5% CO2 incubator with 6-well or 12-well tissue culture plates for adhesion and invasion assays and in 100-mm-diameter tissue culture plates for RNA isolation.
(§2) The invasion of epithelial cells by L. monocytogenes Scott A was studied using the gentamicin-based assay described by Bunduki et al. (1993) and Gaillard et al. (1987) with modifications. Briefly, the HT-29 and the AGS cells monolayers (10^6 cells) were inoculated with 100 μl of the L. monocytogenes Scott A suspension (10^8 and 10^6 CFU/ml) and incubated for 1.5 h at 37° C. in the absence or presence of 0.4 mg/ml CMP, respectively. The monolayers were washed with PBS, followed by the addition of 250 μl of 1 mg/ml gentamicin (Sigma) and incubation for an additional 1.5 h. […]

[2] = system: L. monocytogenes 3990 and 18; assay: Flow chamber biofilm assay (glass capillary tubes, continuous flow); type: cell-based, Listeria monocytogenes; settings: 0.4 mg/ml CMP
Description: Under continuous flow conditions, biofilms were grown in glass capillary tubes by using a slight modification of the previously described method (Purevdorj et al., 2002). The flow chambers, with individual channel dimensions of 3 mm×3 mm×50 mm (Stovall Life Sciences, Inc., Greensboro, N.C., USA), were inoculated with 1 ml (˜10^9 CFU/ml) of the overnight cultures of L. monocytogenes grown in TSBYE. The inoculum was injected to fill the inside of the glass tubes by using a syringe. The tubing upstream of the glass tube was clamped, and the system allowed standing without flow for 30 min at room temperature. After inoculation, the capillary tubes were mounted on a standard microscope slide. The system was switched to continuous culture mode by delivering MWB to the home-made carboy with a flow rate of 0.1 ml/min at 30° C. […] The biofilms developed in the flow chambers were monitored by using transmitted light and 10× objective lenses with an Olympus CH2 microscope (Olympus, Tokyo, Japan).

[3] = system: L. monocytogenes Scott A to HT-29 cell; assay: Adhesion analysis on HT-29 cells; type: cell-based, Listeria monocytogenes; settings: CMP 0.4 mg/ml, at the lower MOI, 30 min 37° C.
Description: as §1
Prior to the adhesion assay, the HT-29 and the AGS cells monolayers were washed three times in pre-warm PBS (25° C.) to remove any culture medium and non-attached cells. The adhesion assays were performed using L. monocytogenes Scott A according to the method of Hagman et al. (1999) with modifications. Bacteria were grown overnight at 37° C. in TSBYE. […]

L. monocytogenes Scott A = assay: Nematode Caenorhabditis elegans killing assay; type: in vivo
Description: Caenorhabditis elegans killing assay were performed as initially described by Tenor et al. (2004) with modification. Briefly, L. monocytogenes Scott A was grown in 10 ml of TSBYE culture for overnight. Culture samples (each, 10 μl) were then spread on NGM agar plates (Brenner, 1974; diameter of each, 30 mm). In the present invention, instead of wild-type Bristol N2 worms, we tested killing of C. elegans glp-4 mutant worms. […] (Mylonakis et al., 2002). For each strain, healthy 12 nematodes in L4 stage were transferred from NGM plates seeded with Escherichia coli OP50 to the plates seeded with L. monocytogenes Scott A in the absence or presence of 0.4 mg/ml of CMP and incubated at 25° C. The number of living worms per plate was determined at various time points for 15 days with a light microscopy (Olympus CH30, Tokyo, Japan). […] Each experimental condition was tested in duplicate or triplicate. In analogous experiments, E. coli OP50 was used as controls.

[4] = system: L. monocytogenes Scott A to AGS cell; assay: Invasion analysis (gentamicin-based) on AGS cells; type: cell-based, Listeria monocytogenes; settings: CMP 0.4 mg/ml, at the lower MOI, 1.5 h 37° C.
Description: as §1, §2

κ-casein macropeptide [CMP]
invasion of L. monocytogenes Scott A [1]: prevented
microcolonies or aggregates seen ([2]; same incubation times as control (12-18 h)): very few microcolonies or aggregates
biofilm biomass compared to control ([2]; strains 3990 and 18, 24 h, glass capillary tubes, continuous flow): decreased biomass
adhesion of L. monocytogenes Scott A [3]: prevented
worms survived (L. monocytogenes Scott A; C. elegans glp-4 on lawn of L. monocytogenes Scott A, agar medium with CMP 0.4 mg/ml, 8 days, 25° C., 37.5% without CMP): 54% and 50%
survival of C. elegans from the infection of L. monocytogenes (L. monocytogenes Scott A; CMP 0.4 mg/ml, 15 days): prolong the survival ability
invasion of L. monocytogenes Scott A [4]: prevented
